# EP2686338B1, “FUNCTIONALIZED BIOMATERIALS FOR TISSUE REGENERATION” (Nanomed3d S.r.l., priority 2011, dated 2018)
# “Also recorded” adds a separate entry of the source. Residues, ends and D or L forms follow the SMILES beside them.
# Columns and labels:
# mouse NSC = assay: NSC differentiation on exposure to soluble heptapeptides (immunofluorescence); format: cell-based; conditions: 12 DIV; peptide 0.1 mg/ml in media; Cultrex and Laminin coated wells; vs untreated NSCs, p<0.05
# Description: In vitro tests were performed as previously described (8), in order to assess whether the heptapeptides obtained of the present invention influence NSCs differentiation.
# Murine cells (at a concentration of 2x10^4 cells/cm^2) were seeded in each well (96 multi-well plate) previously coated with Cultrex-BME® substrate (R&D systems) (1:100 dilution in basal medium, overnight incubation) or with Laminin (Roche) (1:5 dilution in PBS 1x, pH 7.4, overnight incubation).
# Initially, cells were cultured with basal medium supplemented with βFGF (10 ng/ml), added to enhance neuronal progeny differentiation. At 3 days in vitro (DIV), βFGF medium was replaced with Leukemia Inhibitory Factor (LIF, Chemicon) (20 ng/ml) and Brain Derived Neurotrophic Factor (BDNF, Peprotech) (20 ng/ml). Fresh medium was added every three days. The chosen peptides were dissolved in all cell culture media (but not in the coatings) at a concentration of 0.1 mg/ml.
# Immunofluorescence tests were performed for assaying the phenotypes of the differentiated murine NSC progenies. The following antibodies were used: rabbit polyclonal against GFAP (1:500, DakoCytomation) for astrocytes and mouse monoclonal against βIII-Tubulin (1:500, Covance) for neurons. Secondary Abs were Goat anti Mouse Alexa 488 (1:1000, Molecular Probes), Goat anti Mouse Cy3 (1:1000, Jackson Immunoresearch), Cell nuclei were counterstained with DAPI (Molecular Probes). Quantitative analyses were performed by counting 100-300 cells for each of 9 randomly chosen fields over a total of 3 independent experiments.
# Values, reported as means ± standard error of the mean (Figure 1A).
# murine NSCs [1] = assay: Immunofluorescence of differentiated NSC progeny on scaffolds, murine NSCs; format: cell-based; conditions: 1% scaffold; compared to Cultrex positive control
# Description: (§1) In vitro tests were performed as previously described (8), in order to assess whether the biomaterials (assembled hydrogels) obtained with the SAPs of the present invention influenced NSCs adhesion, survival and/or differentiation. SAPeptides (30 µl for each well at a concentration of 10 mg/ml) were assembled into 96 multiwells two hours before cell. Cells (at a concentration of 2x10^4 cells/cm^2) were seeded on the top-surface of each assembled scaffold. Initially, cells were cultured with basal medium supplemented with βFGF (10 ng/ml), added to enhance neuronal progeny differentiation. At 3 days in vitro (DIV), βFGF medium was replaced with Leukemia Inhibitory Factor (LIF, Chemicon) (20 ng/ml) and Brain Derived Neurotrophic Factor (BDNF, Peprotech) (20 ng/ml). Fresh medium was added every three days. For both viability and differentiation assays positive and negative controls consisted of Cultrex-BME® substrate (R&D systems) (1:100 dilution in basal medium) and untreated bottom well surfaces respectively. Cell viability was quantified via CellTiter 96® Aqueous Proliferation Assay (Promega) at 7 DIV as recommended in the Promega protocol. After calibrating the linear response between the cell number and absorbance values, proliferated cell populations were quantified (n=5) by using a Vmax microplate reader (Molecular Devices) at 490nm wavelength. Values, reported as means ± standard error of the mean, were blanked to their respective controls consisting of same substrates and cell culture media without cells.
# (§2) Immunofluorescence tests were performed for assaying the phenotypes of the differentiated human and murine NSC progenies. In the case of KLP and Ac-KLP just murine NSC have been used. Ac-KLP and KLP scaffolds were prepared at different concentrations in order to display three different stiffness values (viz. 100, 500 and 1000 Pa). This was done to assess the influence of scaffold concentration (and consequently its stiffness) over NSC differentiation. All the other peptides were tested at 1% v/w concentration instead. The following antibodies were used: rabbit polyclonal against GFAP (1:500, DakoCytomation) for astrocytes, mouse monoclonal against βIII-Tubulin (1:500, Covance) for neurons, mouse monoclonal against GalC (1:200, Chemicon) and O4 (1:200, Chemicon) for oligodendrocyes. Secondary Abs were Goat anti Mouse Alexa 488 (1:1000, Molecular Probes), Goat anti Mouse Cy3 (1:1000, Jackson Immunoresearch), Goat anti Rabbit Cy3 (1:1000, Jackson Immunoresearch). Cell nuclei were counterstained with DAPI (Molecular Probes). Quantitative analyses were performed by counting 100-300 cells for each of 9 randomly chosen fields over a total of 3 independent experiments. Phase contrast and fluorescence images of the adhering cells were acquired via Zeiss microscopes Axioplan 2 and ApoTome System at one week after seeding.
# [2] = Rheology (frequency, time and strain sweeps); format: physicochemical
# Description: Rheological properties of the self-assembling peptides of the invention were determined using a controlled stress TA Instruments AR-2000ex rheometer (TA Instruments). A cone-and-plate geometry (acrylic cone diameter, 20 mm; angle, 1°; truncation gap 34 µm) was used. Preliminary strain sweeps were performed for each sample to define the linear viscoelastic region, thus ensuring that moduli were independent of strain. Time sweeps, after addition of PBS (1x) were recorded at 25 C (angular frequency ω=1 Hz) and continued till G' plateaued. Frequency sweeps, both for peptide water solutions and for self-assembled scaffolds, were performed at 25 C with the instrument in oscillatory mode at controlled strain of 1 %. Final strain sweeps was performed at 1Hz oscillatory frequency and at 25 C: onset point of failure was calculated by linear interpolation and subsequent determination of the intersection of the G' modes within the linear region and at material failure respectively.
# human NSCs [3] = assay: Imaging and cell proliferation (MTS) assay on assembled scaffolds, human NSCs; format: cell-based
# Description: as §1
# human NSCs [4] = assay: Immunofluorescence of differentiated NSC progeny on scaffolds, human NSCs; format: cell-based; conditions: 1% scaffold; compared to Cultrex positive control
# Description: as §1
# as §2, with “Cell nuclei were counterstained with DAPI (Molecular Probes).” left out
# murine NSCs [5] = assay: Imaging and cell proliferation (MTS) assay on assembled scaffolds, murine NSCs; format: cell-based
# Description: as §1
compound,measurement,setting,value
"CC[C@H](C)[C@H](NC(=O)[C@H](C)NC(=O)[C@@H](N)Cc1c[nH]cn1)C(=O)N[C@@H](Cc1ccc(O)cc1)C(=O)N1CCC[C@H]1C(=O)N[C@@H](CCCNC(=N)N)C(=O)N[C@@H](Cc1c[nH]cn1)C(N)=O [#HAI, NH2-HAIYPRH-CONH2]",percentage of differentiated neurons (Beta III Tubulin staining),mouse NSC,significant increase
"CC(C)C[C@H](NC(=O)[C@@H](N)CCCCN)C(=O)N1CCC[C@H]1C(=O)NCC(=O)N[C@@H](Cc1c[nH]c2ccccc12)C(=O)N[C@@H](CO)C(=O)NCC(N)=O [#KLP, NH2-KLPGWSG-CONH2] (H-KLPGWSG-NH2)",percentage of differentiated neurons (Beta III Tubulin staining),mouse NSC,significant increase; also recorded: Highest increase of the neuronal phenotype
"CC(C)C[C@H](NC(=O)CNC(=O)CNC(=O)CNC(=O)[C@@H]1CCCN1C(=O)[C@@H]1CCCN1C(=O)[C@@H](NC(=O)[C@H](CCCNC(=N)N)NC(=O)[C@H](CCC(N)=O)NC(=O)[C@H](C)NC(=O)[C@@H](N)Cc1ccccc1)C(C)C)C(=O)N[C@@H](CC(=O)O)C(=O)N[C@@H](CC(C)C)C(=O)N[C@@H](CCCCN)C(=O)N[C@@H](CC(C)C)C(=O)N[C@@H](CC(=O)O)C(=O)N[C@@H](CC(C)C)C(=O)N[C@@H](CCCCN)C(=O)N[C@@H](CC(C)C)C(=O)N[C@@H](CC(=O)O)C(=O)N[C@@H](CC(C)C)C(=O)N[C@@H](CCCCN)C(N)=O [FAQ, NH2-FAQRVPP-GGG-LDLKLDLKLDLK-CONH2] (H-FAQRVPPGGGLDLKLDLKLDLK-NH2)",number of neurons,murine NSCs [1],significantly higher
same,number of oligodendrocytes,murine NSCs [1],significantly higher
same,G' pre-assembling,"[2]; average storage modulus of SAPeptide solution, 1% w/v, 1-100 Hz, before PBS",6.66 Pa
same,G' post-assembling,"[2]; average storage modulus of jellified scaffold, 1% w/v, 1-100 Hz, after PBS",142.7 Pa
same,Onset point (% strain),"[2]; strain percentage at rupture, strain sweep at 1 Hz, 25 C",25.43%
same,"cell morphology, adhesion and spreading",human NSCs [3]; 7 DIV on assembled hydrogels,spread and branched cells
same,"cell viability (MTS, cell population)","human NSCs [3]; 7 DIV, scaffolds 10 mg/ml, vs control, P<0.03, n=5",significantly fostered cell viability; also recorded: cell population was bigger
same,number of neurons,human NSCs [4],significantly higher
same,number of oligodendrocytes,human NSCs [4],significantly higher
same,"cell morphology, adhesion and spreading",murine NSCs [5]; 7 DIV on assembled hydrogels,spread and branched cells
same,"cell viability (MTS, cell population)","murine NSCs [5]; 7 DIV, scaffolds 10 mg/ml, vs control, P<0.005, n=5",significantly fostered cell viability; also recorded: cell population was bigger
"CC(C)C[C@H](NC(=O)[C@@H]1CCCN1C(=O)[C@H](C)NC(=O)[C@H](CCCNC(=N)N)NC(=O)[C@@H](NC(=O)[C@H](CCC(=O)O)NC(=O)CN)[C@@H](C)O)C(N)=O [#GET, NH4-GETRAPL-CONH2] (H-GETRAPL-NH2)",percentage of differentiated neurons (Beta III Tubulin staining),mouse NSC,significant increase
